From patent US20100056523A1, “INHIBITORS OF AKT ACTIVITY” (SMITHKLINE BEECHAM CORPORATION, priority 2005, published 2010)
Where a name gives a salt, the structure may show the parent alone.

Assays:
[1] = Solubility in 50 mM phosphate buffer at pH 7.4; type: physicochemical; conditions: suitability for IV dosage forms
[2] = tested on: HFF (normal human foreskin fibroblast); assay: Methylene Blue Growth Inhibition Assay; type: cell-based; conditions: 72 h, HFF normal cells, 3 days incubation
Method: (§1) Tumor cell lines used in this assay were BT474 (human breast carcinoma) and LNCaP (lymph node metastasis of prostate cancer). HFF (normal human foreskin fibroblast) was also included. All cell lines were cultured in RPMI 1640 media (Invitrogen Corporation 22400-071) containing 10% Fetal Bovine Serum (FBS) at 37° C. in a humidified 5% CO2 incubator. Cells were harvested using trypsin/EDTA, counted using a hemacytometer and plated in 96-well tissue culture plates (Costar 35-3075), 100 uL per well, at the following densities: BT474 15,000 cells/well, LNCaP 5,000 cells/well and HFF 5,000 cells/well. 10 mM stocks of compounds in DMSO were serially diluted in DMSO through nine 3-fold dilutions in 96-well plates (Costar Corning 3363), and stored at −80 C. The next day, compound dilutions were thawed and 4 uL of each transferred to 662 uL RPMI 1640+100 ug/mL gentamicin, resulting in twice the final required test concentrations. 100 uL of compounds diluted in RPMI 1640 were added to all cell lines. The final concentration of DMSO in all wells, including controls, was 0.3%. Cells were incubated at 37 C, 5% CO2 for 3 days. Medium was removed by aspiration. Cell biomass was estimated by staining cells with 80 uL methylene blue (Sigma M9140, 0.5% in 50:50 ethanol:water), and incubating at room temperature for 1 hour. Stain was aspirated and the plates rinsed by immersion in water, then air-dried. Stain was released from cells by adding 100 uL of solubilizing solution (1% N-lauroyl sarcosine, sodium salt, Sigma L5125, in PBS) and incubating at room temperature for at least 30 minutes. Plates were shaken and the optical density at 620 nm was measured on a microplate reader. Percent inhibition of cell growth was calculated relative to vehicle-treated control wells. Concentration of compound that inhibits 50% of cell growth (IC50) was interpolated using non-linear regression (Levenberg-Marquadt) and the equation, y=Vmax*(1−(x̂n/K̂n+x̂n)))+Y2. [Ref: Mager, M. E. (1972) Data Analysis in Biochemistry and Biophysics. New York: Academic Press]

[3] = tested on: LNCaP (lymph node metastasis of prostate cancer); assay: Methylene Blue Growth Inhibition Assay; type: cell-based; conditions: Homo sapiens, 72 h, 3 days incubation
Method: as §1

[4] = tested on: BT474 (human breast carcinoma); assay: Methylene Blue Growth Inhibition Assay; type: cell-based; conditions: BT-474, 72 h, BT474, 3 days incubation
Method: as §1

SMILES	solubility (assessment in words) [1]	IC50 [2]	IC50 [3]	IC50 [4]
CCn1c(-c2nonc2N)nc2c(C#CC(C)(C)O)ncc(OC[C@@H]3CNCCS3)c21 (single isomer, unassigned; enantiomer e1) [Example 3, 4-{2-(4-amino-1,2,5-oxadiazol-3-yl)-1-ethyl-7-[(2-thiomorpholinylmethyl)oxy]-1H-imidazo[4,5-c]pyridin-4-yl}-2-methyl-3-butyn-2-ol dihydrochloride (enantiomer E1)]	suitable for formulation into dosage forms for IV administration	> 30000 nM	4 nM	6 nM
CCn1c(-c2nonc2N)nc2c(C#CC(C)(C)O)ncc(OC[C@@H]3CN(C)CCS3)c21 (single isomer, unassigned; enantiomer e1) [Example 7, 4-(2-(4-amino-1,2,5-oxadiazol-3-yl)-1-ethyl-7-{[(4-methyl-2-thiomorpholinyl)methyl]oxy}-1H-imidazo[4,5-c]pyridin-4-yl)-2-methyl-3-butyn-2-ol (enantiomer E1)]		> 30000 nM	83 nM	186 nM
CCn1c(-c2nonc2N)nc2c(C#CC(C)(C)O)ncc(OC[C@H]3CCCNC3)c21 [Example 1, 4-(2-(4-amino-1,2,5-oxadiazol-3-yl)-1-ethyl-7-{[(3S)-3-piperidinylmethyl]oxy}-1H-imidazo[4,5-c]pyridin-4-yl)-2-methyl-3-butyn-2-ol]	suitable for formulation into dosage forms for IV administration	> 20000 nM	16 nM	484 nM
CCn1c(-c2nonc2N)nc2c(C#CC(C)(C)O)ncc(OC[C@@H]3CNCCO3)c21 [Example 4, 4-(2-(4-amino-1,2,5-oxadiazol-3-yl)-1-ethyl-7-{[(2S)-2-morpholinylmethyl]oxy}-1H-imidazo[4,5-c]pyridin-4-yl)-2-methyl-3-butyn-2-ol]	suitable for formulation into dosage forms for IV administration	> 25000 nM	15 nM	37 nM
CCn1c(-c2nonc2N)nc2c(C#CC(C)(C)O)ncc(OC[C@H]3CCCN(C)C3)c21 [Example 6, 4-[2-(4-amino-1,2,5-oxadiazol-3-yl)-1-ethyl-7-({[(3S)-1-methyl-3-piperidinyl]methyl}oxy)-1H-imidazo[4,5-c]pyridin-4-yl]-2-methyl-3-butyn-2-ol, dihydrochloride]		16800 nM	53 nM	324 nM
CCn1c(-c2nonc2N)nc2c(C#CC(C)(C)O)ncc(OCC3CCNC3)c21 (stereo not shown) [Example 5, 4-[2-(4-amino-1,25-oxadiazol-3-yl)-1-ethyl-7-[(3-Pyrrolidinylmethyl)oxy]-1H-imidazo[4,5-c]pyridin-4-yl]-2-methyl-3-butyn-2-ol, bis-trifluoroacetic acid salt]		20100 nM	459 nM	1030 nM
CCn1c(-c2nonc2N)nc2c(C#CC(C)(C)O)ncc(OCC3CNCC(C)O3)c21 (stereo in doubt) [Example 9, 4-[2-(4-amino-1,2,5-oxadiazol-3-yl)-1-ethyl-7-({[(2R)-6-methyl-2-morpholinyl]methyl}oxy)-1H-imidazo[4,5-c]pyridin-4-yl]-2-methyl-3-butyn-2-ol, dihydrochloride]	suitable for formulation into dosage forms for IV administration	9390 nM	49 nM	80 nM
CCn1c(-c2nonc2N)nc2c(C#CC(C)(C)O)ncc(OC[C@@H]3CN(C)CCO3)c21 [Example 8, 4-[2-(4-amino-1,2,5-oxadiazol-3-yl)-1-ethyl-7-({[(2S)-4-methyl-2-morpholinyl]methyl}oxy)-1H-imidazo[4,5-c]pyridin-4-yl]-2-methyl-3-butyn-2-ol]		> 30000 nM	272 nM	665 nM
CCn1c(-c2nonc2N)nc2c(C#CC(C)(C)O)ncc(OC[C@H]3CNCCO3)c21 [Example 2, 4-(2-(4-amino-1,2,5-oxadiazol-3-yl)-1-ethyl-7-{[(2R)-2-morpholinylmethyl]oxy}-1H-imidazo[4,5-c]pyridin-4-yl)-2-methyl-3-butyn-2-ol dihydrochloric acid salt]		> 30000 nM	189 nM	1000 nM
